Measurements reported in ChEMBL document CHEMBL1142360 (J Med Chem, 2008).

Tests used:
[1] = Partition coefficient, log P of the compound; type: physicochemical; details: octanol/water
PC-3 [2] = experiment: Antiproliferative activity against human PC3 cells at 10 uM after 5 days; type: functional
PC-3 [3] = experiment: Antiproliferative activity against human PC3 cells; type: functional, cell-based

Question: With `C[C@](O)(CS(=O)(=O)c1ccc(F)cc1)C(=O)Nc1ccc(C#N)c(C(F)(F)F)c1` [(R)-BICALUTAMIDE] as the compound, how does the logP [1] read?
Answer: 3.4

Question: What about the Activity (PC-3 [2]) of the same compound?
Answer: 15%

Question: Which results are given for `CC1(C)NC(=O)N(c2ccc([N+](=O)[O-])c(C(F)(F)F)c2)C1=O` [NILUTAMIDE]?
Answer: logP [1]: 3.2; Activity (PC-3 [2]): 11%

Question: With `COc1ccc(C2(c3ccc(C#N)c(C(F)(F)F)c3)NC(=O)N(c3ccc(C#N)c(C(F)(F)F)c3)C2=O)cc1` (configuration not stated) as the compound, how does the logP [1] read?
Answer: 5.7

Question: And the IC50 (PC-3 [3])?
Answer: 5.6 µM

Question: And the Activity (PC-3 [2])?
Answer: 76%
